Legend:
[1] = target: T1, cystic fibrosis transmembrane conductance regulator (ΔR-CFTR) (Homo sapiens, UniProt P13569, DEL634-836); assay: excised inside-out patch-clamp; assay type: biochemical
[2] = target: T1, cystic fibrosis transmembrane conductance regulator (ΔR-CFTR); assay: excised inside-out patch-clamp, single-channel Po versus [ATP]; assay type: biochemical

T1 sequence (P13569 1-633, stated change not applied): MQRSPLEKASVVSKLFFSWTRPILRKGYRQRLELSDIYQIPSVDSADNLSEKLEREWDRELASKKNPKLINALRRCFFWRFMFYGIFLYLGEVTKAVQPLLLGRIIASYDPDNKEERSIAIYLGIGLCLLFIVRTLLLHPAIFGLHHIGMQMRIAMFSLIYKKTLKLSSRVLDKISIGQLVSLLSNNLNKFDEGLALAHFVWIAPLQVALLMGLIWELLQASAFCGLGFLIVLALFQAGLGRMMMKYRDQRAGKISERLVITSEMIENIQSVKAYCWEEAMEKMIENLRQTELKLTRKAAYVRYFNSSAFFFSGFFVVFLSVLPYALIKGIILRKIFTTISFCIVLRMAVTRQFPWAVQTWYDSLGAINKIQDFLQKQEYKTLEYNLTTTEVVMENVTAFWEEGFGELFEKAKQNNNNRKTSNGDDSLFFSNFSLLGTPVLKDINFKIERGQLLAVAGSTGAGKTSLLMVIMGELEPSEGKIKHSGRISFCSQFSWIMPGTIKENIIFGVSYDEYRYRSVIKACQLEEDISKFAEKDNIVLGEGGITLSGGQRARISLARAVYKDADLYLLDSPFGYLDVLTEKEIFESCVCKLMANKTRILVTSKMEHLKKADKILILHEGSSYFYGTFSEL
T1 sequence (P13569 837-1480, stated change not applied): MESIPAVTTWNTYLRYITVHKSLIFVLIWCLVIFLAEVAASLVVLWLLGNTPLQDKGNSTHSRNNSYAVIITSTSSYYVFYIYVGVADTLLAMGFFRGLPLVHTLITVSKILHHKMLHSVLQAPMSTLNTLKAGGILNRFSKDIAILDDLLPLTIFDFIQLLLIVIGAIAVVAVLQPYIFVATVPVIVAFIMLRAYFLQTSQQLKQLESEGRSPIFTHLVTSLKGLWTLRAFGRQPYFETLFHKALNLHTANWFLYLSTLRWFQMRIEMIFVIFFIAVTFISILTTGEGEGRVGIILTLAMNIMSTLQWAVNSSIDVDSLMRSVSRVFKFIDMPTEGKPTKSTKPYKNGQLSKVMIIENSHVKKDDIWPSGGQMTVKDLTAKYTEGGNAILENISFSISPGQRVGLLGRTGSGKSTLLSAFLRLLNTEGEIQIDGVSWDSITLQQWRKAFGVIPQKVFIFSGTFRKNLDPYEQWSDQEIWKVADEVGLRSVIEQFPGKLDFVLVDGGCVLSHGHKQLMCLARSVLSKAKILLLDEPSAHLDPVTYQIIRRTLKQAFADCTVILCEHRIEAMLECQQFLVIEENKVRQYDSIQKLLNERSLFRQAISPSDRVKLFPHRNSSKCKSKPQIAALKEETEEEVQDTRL

Row | Ki [1] [µM] | EC50 [2] [µM] | SMILES
1 | 26.3 ± 5.1 |  | Nc1ncnc2c1ncn2[C@@H]1O[C@H](COP(=O)(O)OP(=O)(O)O)[C@@H](O)[C@H]1O [ADP]
2 |  | 89 ± 25 | Nc1ncnc2c1ncn2[C@@H]1O[C@H](COP(=O)(O)OP(=O)(O)OP(=O)(O)O)[C@@H](O)[C@H]1O [ATP]

From PMC1382195 (The Journal of General Physiology, 2005)
